Experimental data taken from ChEMBL document CHEMBL5728776, “Hydrocarbylsulfonyl-substituted pyridines and their use in the treatment of cancer” (2021).

Assays:
[1] = target: T1, Thioredoxin reductase 1, cytoplasmic (Homo sapiens, UniProt Q16881); assay: (§1) Inhibition of Recombinant TrxR1: Small molecule inhibition of recombinant thioredoxin reductase 1 (TrxR1) and gluthathione reductase (GR) was examined in 96-well plate format. 30 nM TrxR1 was incubated in the presence of 250 μM NADPH, 0.1 mg/ml BSA, and various concentrations of compound (1% DMSO final) in 50 mM Tris (pH 7.5) and 2 mM EDTA buffer for 15 minutes. Following the incubation period, 2 mM DTNB was added to each well and the change in O.D. at 412 nm was followed. Percent activity was determined using DMSO vehicle and no TrxR1 (blank) controls. 2 nM GR was incubated in the presence of 250 μM NADPH, 0.1 mg/ml BSA, and various concentrations of compounds (1% DMSO final) in 50 mM Tris (pH 7.5) and 2 mM EDTA buffer for 15 minutes. Following the incubation period, 1 mM GSSG was added to each well and the change in O.D. at 340 nm was followed. Percent activity was determined using DMSO vehicle and no GR (blank) controls.
T1 sequence (Q16881 whole entry): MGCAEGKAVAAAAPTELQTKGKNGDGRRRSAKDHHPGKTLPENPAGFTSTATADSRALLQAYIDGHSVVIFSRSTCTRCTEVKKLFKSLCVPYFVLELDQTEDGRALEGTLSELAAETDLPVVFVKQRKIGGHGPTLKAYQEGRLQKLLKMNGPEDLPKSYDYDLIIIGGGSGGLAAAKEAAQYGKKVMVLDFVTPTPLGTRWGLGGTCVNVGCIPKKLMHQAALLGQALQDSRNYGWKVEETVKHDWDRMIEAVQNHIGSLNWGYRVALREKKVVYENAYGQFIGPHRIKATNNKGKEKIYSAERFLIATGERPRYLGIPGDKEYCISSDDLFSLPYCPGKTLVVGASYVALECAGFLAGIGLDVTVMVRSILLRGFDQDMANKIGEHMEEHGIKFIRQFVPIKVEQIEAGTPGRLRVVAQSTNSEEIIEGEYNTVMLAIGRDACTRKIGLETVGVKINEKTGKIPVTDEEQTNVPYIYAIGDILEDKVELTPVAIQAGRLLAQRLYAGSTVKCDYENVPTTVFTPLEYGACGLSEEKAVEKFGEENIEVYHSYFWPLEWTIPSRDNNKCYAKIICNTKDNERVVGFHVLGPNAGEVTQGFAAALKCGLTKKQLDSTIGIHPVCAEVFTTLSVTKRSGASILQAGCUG

[2] = target: T2, Glutathione reductase, mitochondrial (Homo sapiens, UniProt P00390); assay: as §1
T2 sequence (P00390 whole entry): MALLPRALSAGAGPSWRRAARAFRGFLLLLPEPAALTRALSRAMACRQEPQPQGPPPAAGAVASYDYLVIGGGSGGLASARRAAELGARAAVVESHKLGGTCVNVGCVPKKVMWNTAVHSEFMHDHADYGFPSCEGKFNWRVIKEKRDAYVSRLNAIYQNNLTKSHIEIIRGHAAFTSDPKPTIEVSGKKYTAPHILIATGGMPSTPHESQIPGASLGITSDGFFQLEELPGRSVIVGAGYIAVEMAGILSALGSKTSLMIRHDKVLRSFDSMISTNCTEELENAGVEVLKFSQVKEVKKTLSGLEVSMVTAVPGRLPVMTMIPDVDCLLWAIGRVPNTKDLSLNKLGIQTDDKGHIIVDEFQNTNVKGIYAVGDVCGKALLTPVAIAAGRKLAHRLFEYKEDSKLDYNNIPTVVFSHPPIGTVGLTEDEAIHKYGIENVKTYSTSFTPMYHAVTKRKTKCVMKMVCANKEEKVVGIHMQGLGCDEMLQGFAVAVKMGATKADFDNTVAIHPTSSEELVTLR

IC50 [1]: 0.276 µM
IC50 [2]: > 100 µM
Structure (SMILES): CN(C)c1ccc([N+](=O)[O-])c(S(=O)(=O)Cc2ccccc2)n1
